From article PMC12733166, “Enhancing Cytosolic Internalization of [^177Lu]Lu–iPSMA in Prostate Cancer Cells: The Effect of Conjugating a GRP78 Inhibitor to the Radiotherapeutic Molecule” (International Journal of Molecular Sciences, 2025) come the findings set out here.

Starred links: 1 amine or outer side, 2 acyl side, 3 side chain; linkers in the order of their positions; H or OH if unused. Non-standard residues stand in square brackets, D forms with d. Residues, ends and D or L forms follow the SMILES beside them. *: point of attachment. X2 = O=C(O)CC[C@@H](NC(=O)N[C@H](CCCCNC(=O)[C@H](Cc1ccc2ccccc2c1)NC(=O)CCCN1C(=O)C[C@@H](*)C1=O)C(=O)O)C(=O)O; DOTA = O=C(O)CN1CCN(CC(=O)O)CCN(CC(=O)*)CCN(CC(=O)O)CC1; X1 = O=C(c1ccc(NN[*:1])nc1)[*:2]

Data set [1] relates to PC3 cells (PSMA−, CS-GRP78−). Briefly: Cytosolic and nuclear internalization (subcellular fractionation) in PC3 cells. It counts as cell-based, human. Particulars: PC3 cells 1 × 10^5/200 µL, 37 kBq/4 nmol, 1 h, 37 °C. The procedure:
(§1) PC-3 (CRL-1435; ATCC, Manassas, VA, USA) and LNCaP human prostate cancer cells (CRL-1740; ATCC, USA) were cultured in Roswell Park Memorial Institute medium (RPMI; Sigma-Aldrich, USA) at 37 °C, 85% humidity, 5% CO2, and 10% fetal bovine serum.
(§2) Assays were performed to evaluate the cellular uptake and subcellular distribution of [^177Lu]Lu–iPSMA–iGRP78 and the control monomers [^177Lu]Lu–iPSMA and [^177Lu]Lu–iGRP78 in two prostate cancer cell lines: LNCaP (PSMA+, SC-GRP78+) and PC3 (PSMA^−, CS-GRP78^−). Cells (1 × 10^5/200 µL) were incubated with the radiopharmaceutical (37 kBq/4 nmol) for 1 h at 37 °C to assess the distribution between the cytoplasm and nucleus.
Following incubation, tubes were measured with a NaI(Tl) crystal scintillation gamma-counter (NML Inc., TX, USA) to determine 100% of the initial activity. The tubes were centrifuged at 250× g for 5 min, and the supernatant was withdrawn. The activity in the pellet was measured to determine the percentage of cellular uptake (surface uptake) relative to the initial activity. […]
(§3) After centrifugation, the cell pellet, which corresponds to the internalized activity, was quantified using a gamma counter. The radioactivity measured in the pellet was defined as 100% of the internalized activity.
The pellet was resuspended in cytoplasmic lysis buffer with dithiothreitol and a protease inhibitor cocktail to maintain protein stability during lysis. […] The supernatant, representing the cytosolic fraction, was collected and analyzed for radioactivity via gamma counting. […]
(§4) Radioactivity measurements were conducted on both the nuclear extract and the membrane pellet fractions using a gamma counter. The percentage of activity within each subcellular compartment was calculated for each time point, allowing for evaluation of the distribution of [^177Lu]Lu–iPSMA–iGRP78 and control monomers [^177Lu]Lu–iPSMA and [^177Lu]Lu–iGRP78 between the cytoplasmic and nuclear compartments of prostate cancer cells over time.

Data set [2] has as its system LNCaP cells. Briefly: Cytotoxicity / cell viability by flow cytometry (Muse Count & Viability kit). It counts as cell-based, human. Particulars: LNCaP 5 × 10^4 cells/200 µL, 1.4 MBq, 5 h (15 Gy/h whole-cell dose); triplicate (n = 3) from two independent experiments, mean ± SD. The method, then:
The effects of radioligands on LNCaP cell viability were evaluated using advanced flow cytometry techniques. The radioligands tested were [^177Lu]Lu–iPSMA–iGRP78, [^177Lu]Lu–iPSMA, and [^177Lu]Lu–iGRP78. This evaluation was conducted to assess their impact on the survival of prostate cancer cells. Cell viability was measured using the Count & Viability kit (Muse®). Prior to analysis, the Muse® cell analyzer (Merck Millipore, Burlington, MA, USA) was calibrated with the verification kit to ensure its accuracy. First, a fresh, untreated LNCaP cell sample was analyzed to establish reference parameters, including cell size, granularity, and natural cell viability. To accurately distinguish between live and dead cells, an aliquot of the same cell population was treated with 0.05% Triton X-100. This treatment defined the dead cell detection window in the analyzer. Next, a specific detection window was established for LNCaP cells to differentiate between viable and non-viable cells during analysis accurately. For each experimental group, a cell suspension containing 5 × 10^4 cells in 200 µL was prepared. The cells were then treated as follows: 1.4 MBq of (a) [^177Lu]Lu–iPSMA–iGRP78, (b) [^177Lu]Lu–iPSMA, (c) [^177Lu]Lu–iGRP78, and (d) untreated. After five hours of treatment (15 Gy/h at whole-cell dose), the cells were mixed with 450 µL of viability reagent and incubated for 5 min at room temperature in the dark. All measurements were performed in triplicate (n = 3) from two independent experiments to ensure reliability and reproducibility. To determine the radiation absorbed dose rate to the whole cell (15 Gy/h), the total number of nuclear transformations (N) was calculated. This value was normalized to the administered activity unit (MBq·s/MBq) by integrating the activity (A(t)) from time zero to five hours. Next, the absorbed dose was calculated by multiplying N by the dose factor (DF: from cell to cell) (Gy/Bq·s), as determined by MIRDcell software, considering the crossfire absorbed dose (version 2.1).
A general note: A flow cytometer gives signals particle by particle.

The nature of data set [3]: Stability in PBS (radiochemical purity by radio-HPLC). It counts as physicochemical. The note with it: 10 µL (18.5 MBq) in 1 mL PBS, 3 h, 37 °C; reverse-phase radio-HPLC; n = 3. The method, then: The quality control assessed bacterial endotoxins, sterility, pH, and appearance, following the general methods of the Mexican Pharmacopeia. Radiochemical purity was evaluated by reversed-phase radio-high-performance liquid chromatography (radioHPLC) ( LC-40DxR, Shimadzu, Kyoto, Japan). A shim-pack GIST C18 column (Shimadzu: 4.6 mm × 25 cm, 5 μm particle size) with a linear gradient from 100% to 10% of mobile phase A (0.1% TFA aqueous solution) and from 0% to 90% of phase B (0.1% TFA in acetonitrile) in 20 min at 1 mL/min. The retention time of [^177Lu]Lu–iPSMA–iGRP78 was 17.4 ± 0.3 min, and 3.7 ± 0.2 min for ^177LuCl3. Radiochemical purities of [^177Lu]Lu–iPSMA (tR = 15.2 ± 0.2 min) and [^177Lu]Lu–iGRP78 (tR = 19.2 ± 0.4 min) were also verified to be higher than 95%.
To assess the in vitro stability of [^177Lu]Lu-iPSMA-iGRP78, 10 µL (18.5 MBq) of the radiopharmaceutical was diluted in either 1 mL of PBS or 1 mL of human serum (NIST-909c certified human serum sample; Sigma-Aldrich, St. Louis, MO, USA) (n = 3). The mixtures were incubated for 3 h at 37 °C. Then, 0.5 mL of acetonitrile was added to the human serum samples to precipitate the proteins, and the mixtures were centrifuged at 500× g for 10 min. The radiochemical purity of the human serum supernatants and PBS solution samples was analyzed by reverse-phase radio-HPLC, as described above.

In data set [4] the test system is LNCaP cells (PSMA+, CS-GRP78+). Briefly: Cytosolic and nuclear internalization (subcellular fractionation) in LNCaP cells. Particulars: LNCaP cells 1 × 10^5/200 µL, 37 kBq/4 nmol, 1 h, 37 °C; for Cytosolic internalization: gamma counting of cytosolic fraction; for Nuclear internalization: gamma counting of nuclear extract. It counts as cell-based, human. The procedure:
as §1, §2
Following incubation, tubes were measured with a NaI(Tl) crystal scintillation gamma-counter (NML Inc., TX, USA) to determine 100% of the initial activity. The tubes were centrifuged at 250× g for 5 min, and the supernatant was withdrawn. The activity in the pellet was measured to determine the percentage of cellular uptake (surface uptake) relative to the initial activity. Next, the nuclei and cytoplasm of the cells were separated using a Nuclear Extraction Kit (Chemicon International, Inc., Temecula, CA, USA). To prepare for fractionation, the cells were first washed with 1 mL of 0.2 M acetic acid/0.5 M NaCl. The tubes were centrifuged at 250× g for 5 min, washed with phosphate-buffered saline (PBS), and then centrifuged again to ensure thorough removal of extracellular components.
as §3
The pellet was resuspended in cytoplasmic lysis buffer with dithiothreitol and a protease inhibitor cocktail to maintain protein stability during lysis. Mechanical disruption was performed by passing the suspension through a 27-gauge needle multiple times using a syringe to ensure complete cell breakdown. The resulting lysate underwent centrifugation at 8000× g for 20 min at 4 °C. The supernatant, representing the cytosolic fraction, was collected and analyzed for radioactivity via gamma counting.
The remaining pellet, containing the nuclear fraction, was resuspended in nuclear extraction buffer supplemented with dithiothreitol and a protease inhibitor cocktail. Nuclear disruption was carried out before centrifuging at 16,000× g for 5 min at 4 °C. The supernatant contained the nuclear extract, while the membrane components remained in the pellet.
as §4

In data set [5] the test system is LNCaP cells (PSMA+, CS-GRP78+). As to the kind of experiment: Saturation binding assay on LNCaP cells. The arrangement: species or system human. Particulars: 1-100 nM radioligand, 4 °C, 2 h, non-specific binding with 1 μM PMPA, n = 3 from two independent experiments; for Kd: GraphPad Prism, read-out: Dissociation constant (Kd). The procedure:
as §1
The affinity comparison between the [^177Lu]Lu–iPSMA–iGRP78 dimer and [^177Lu]Lu–iPSMA monomer was performed in LNCaP cells. For the saturation binding analysis, cells were seeded on 96-well plate cultures ([…]) and incubated at 37 °C under a CO2 atmosphere for 24 h, then the plates were placed on ice for 30 min. Next, they were incubated at 4 °C for 2 h with increasing concentrations (from 1nM to 100 nM) of the monomer [^177Lu]^natLu-iPSMA or the dimer [^177Lu]^natLu-iPSMA-iGRP78. Finally, cells were washed with PBS followed by the addition of 1M NaOH for cell lysis. This solution was measured for radioactivity using a NaI(Tl) gamma counter (NML Inc., Littleton, CO, USA). Non-specific binding of [^177Lu]Lu–iPSMA–iGRP78 and [^177Lu]Lu–iPSMA was determined under the same experimental conditions described above but in the presence of PMPA (2-(phosphonomethyl) pentanedioic acid) at a final concentration of 1 μM. The dissociation constant (Kd) and maximum number of binding sites (Bmax) were calculated by a lineal regression analysis with data (n = 3) from two independent experiments using the GraphPad Prism software (v. 10.6.1).

As to `CC[C@@H](C)[C@@H](NC(=O)[C@@H](Cc1c[nH]c2ccccc12)NC(=O)[C@H]1CCCN1C(=O)[C@@H](Cc1ccccc1)NC(=O)[C@H](NC(=O)[C@@H](Cc1c[nH]c2ccccc12)NC(=O)[C@@H](CS)NC(=O)c1ccc(NNC(=O)CN2CCN(CC(=O)O)CCN(CC(=O)O)CCN(CC(=O)O)CC2)nc1)[C@H](C)CC)C(=O)N[C@H](CCC(N)=O)C(=O)N[C@H](CC(C)C)C(=O)O` [[^177Lu]Lu–iGRP78, metal not drawn] ({DOTA}-[X1][dC][dW][dI][dF][dP][dW][dI][dQ][dL]-OH), in data set [1], the “Uptake in cellular cytosol and nucleus” value was “low uptake”. Also, the Dead cells in data set [2] came to 68.93 ± 5.05%. Further, the “Radiochemical purity, unchanged after incubation in PBS” value (“Radiochemical purity, unchanged” for short) in data set [3] was “exceeding 97%”. In addition, in data set [4], the Cytosolic internalization entry was “highest internalization values” and the Nuclear internalization result is “highest internalization values”.

Take `O=C(O)CC[C@@H](NC(=O)N[C@H](CCCCNC(=O)[C@H](Cc1ccc2ccccc2c1)NC(=O)c1ccc(NNC(=O)CN2CCN(CC(=O)O)CCN(CC(=O)O)CCN(CC(=O)O)CC2)nc1)C(=O)O)C(=O)O` [[^177Lu]Lu–iPSMA, metal not drawn]: the “Uptake in cellular cytosol and nucleus” value in data set [1] is “low uptake”. In addition, in data set [2], the Dead cells came to 38.63 ± 6.13%. Moreover, the “Radiochemical purity, unchanged” value in data set [3] is given as “exceeding 97%”. In data set [5], the “Maximum number of binding sites (Bmax)” value is recorded as 0.032 nM and the Kd (in general, the constant that tells how readily two partners part at equilibrium) came out at 2.25 nM. Also, in data set [4], the Cytosolic internalization came out at 6.45 ± 0.60% and the Nuclear internalization result is listed as “no uptake in the cell nucleus”.

As for `CC[C@@H](C)[C@@H](NC(=O)[C@@H](Cc1c[nH]c2ccccc12)NC(=O)[C@H]1CCCN1C(=O)[C@@H](Cc1ccccc1)NC(=O)[C@H](NC(=O)[C@@H](Cc1c[nH]c2ccccc12)NC(=O)[C@@H](CS[C@@H]1CC(=O)N(CCCC(=O)N[C@@H](Cc2ccc3ccccc3c2)C(=O)NCCCC[C@@H](NC(=O)N[C@H](CCC(=O)O)C(=O)O)C(=O)O)C1=O)NC(=O)c1ccc(NNC(=O)CN2CCN(CC(=O)O)CCN(CC(=O)O)CCN(CC(=O)O)CC2)nc1)[C@H](C)CC)C(=O)N[C@H](CCC(N)=O)C(=O)N[C@H](CC(C)C)C(=O)O` [[^177Lu]Lu–iPSMA–iGRP78, metal not drawn] ({DOTA}-[X1][dC](X2)[dW][dI][dF][dP][dW][dI][dQ][dL]-OH), the “Uptake in cellular cytosol and nucleus” value in data set [1] was “low uptake”. Further, in data set [2], the Dead cells is 69.93 ± 4.85%. In addition, the “Radiochemical purity, unchanged” value in data set [3] is given as “exceeding 97%”. Further, in data set [5], the “Maximum number of binding sites (Bmax)” value came out at 0.048 nM and the Kd came out at 1.88 nM. Moreover, in data set [4], the Cytosolic internalization is listed as 10.44 ± 2.43% and the Nuclear internalization was determined as 4.81 ± 0.94%.
